In PubChem BioAssay AID248 (DTP/NCI, 2004):
Several values for one entry are separate records, joined by “and”; a condition that tells them apart may be missing. Equal entries are not always repeated. Inconclusive results and toxic doses are left out. Rule as the data show it: active = T/C of 150% or more; inactive = T/C below 125%.

Tested on: L1210 leukemia ip in BDF1 mice, survival T/C
Assay: NCI In Vivo Anticancer Drug Screen. Data for tumor model L1210 Leukemia (intraperitoneal) in B6D2F1 (BDF1) mice
Conditions: endpoint: mean survival time, higher = longer survival
Summary of the method: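 Tumor cells were implanted, animals were treated, and survival was followed. The result divides the treated measurement by the vehicle-control measurement.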

[1] = dose: 25.0 mg/kg/injection, schedule: Q01DX009 (ip), vehicle: saline with Tween-80
[2] = dose: 50.0 mg/kg/injection, schedule: Q01DX009 (ip), vehicle: saline with Tween-80
[3] = dose: 100.0 mg/kg/injection, schedule: Q01DX009 (ip), vehicle: saline with Tween-80
[4] = dose: 100.0 mg/kg/injection, schedule: Q04DX003 (ip), vehicle: saline with Tween-80
[5] = dose: 200.0 mg/kg/injection, schedule: Q01DX009 (ip), vehicle: saline with Tween-80
[6] = dose: 200.0 mg/kg/injection, schedule: Q04DX003 (ip), vehicle: saline with Tween-80
[7] = dose: 400.0 mg/kg/injection, schedule: Q04DX003 (ip), vehicle: saline with Tween-80
[8] = dose: 100.0 mg/kg/injection, schedule: Q04DX003 (ip), vehicle: Klucel (hydroxypropylcellulose) (HPC)
[9] = dose: 200.0 mg/kg/injection, schedule: Q04DX003 (ip), vehicle: Klucel (hydroxypropylcellulose) (HPC)
[10] = dose: 100.0 mg/kg/injection, schedule: Q01DX009 (ip), vehicle: Klucel (hydroxypropylcellulose) (HPC)
[11] = dose: 200.0 mg/kg/injection, schedule: Q01DX009 (ip), vehicle: Klucel (hydroxypropylcellulose) (HPC)
[12] = dose: 400.0 mg/kg/injection, schedule: Q01DX009 (ip), vehicle: saline with Tween-80

Measured: T/C

COc1cc(NC(C)=O)ccn1
inactive: dose: 100.0 mg/kg/injection, schedule: Q04DX003 (ip), vehicle: acetone 89 % of control | dose: 200.0 mg/kg/injection, schedule: Q04DX003 (ip), vehicle: acetone 100 % of control | dose: 400.0 mg/kg/injection, schedule: Q04DX003 (ip), vehicle: acetone 110 % of control

CCCCC(c1nc2c(c3c1CCCC3)CCCC2)C(O)(C(F)(F)F)C(F)(F)F (configuration not stated)
inactive: [1] 102 % of control | [2] 104 % of control | [3] 93 % of control and 87 % of control | [4] 97 % of control | [5] 89 % of control | [6] 100 % of control | [7] 102 % of control

c1cc[c]([Sn]([CH2]Cc2ccncc2)([c]2ccccc2)[c]2ccccc2)cc1
inactive: dose: 100.0 mg/kg/injection, schedule: Q04DX002 (sc), vehicle: olive oil, sesame oil, peanut oil 110 % of control | dose: 200.0 mg/kg/injection, schedule: Q04DX002 (sc), vehicle: olive oil, sesame oil, peanut oil 100 % of control | dose: 400.0 mg/kg/injection, schedule: Q04DX002 (sc), vehicle: olive oil, sesame oil, peanut oil 103 % of control

C=COC(N)=O
inactive: dose: 33.0 mg/kg/injection, schedule: Q01DX001 (ip), vehicle: saline 116 % of control | dose: 50.0 mg/kg/injection, schedule: Q01DX001 (ip), vehicle: saline 117 % of control | dose: 75.0 mg/kg/injection, schedule: Q01DX001 (ip), vehicle: saline 121 % of control | dose: 113.0 mg/kg/injection, schedule: Q01DX001 (ip), vehicle: saline 111 % of control

CCCCCCCCCCCCCCCCCOc1ccc(I)cc1
inactive: [8] 91 % of control | [9] 91 % of control

CCc1cccc(CC)c1N=Cc1ccccc1
inactive: [10] 97 % of control | [11] 105 % of control | dose: 400.0 mg/kg/injection, schedule: Q01DX009 (ip), vehicle: Klucel (hydroxypropylcellulose) (HPC) 97 % of control

COc1cc(C(=O)NO)cc(OC)c1OC
inactive: [4] 97 % of control and 104 % of control | [6] 97 % of control and 110 % of control | [7] 97 % of control and 100 % of control

COc1cc(C2=N/C(=C\c3cc(Br)cc(Br)c3O)C(=O)O2)cc(OC)c1OC
inactive: dose: 25.0 mg/kg/injection, schedule: Q04DX002 (ip), vehicle: saline with Tween-80 97 % of control | dose: 50.0 mg/kg/injection, schedule: Q04DX002 (ip), vehicle: saline with Tween-80 90 % of control | dose: 100.0 mg/kg/injection, schedule: Q04DX002 (ip), vehicle: saline with Tween-80 90 % of control | dose: 200.0 mg/kg/injection, schedule: Q04DX002 (ip), vehicle: saline with Tween-80 95 % of control | dose: 400.0 mg/kg/injection, schedule: Q04DX002 (ip), vehicle: saline with Tween-80 95 % of control

O=C(Nc1cccc([N+](=O)[O-])c1)c1ccc2c(c1)C(=O)OC2=O
inactive: [3] 95 % of control | [5] 87 % of control | [12] 93 % of control

O=C(NC(Cc1ccccc1)C(=O)O)OCc1ccccc1 (configuration not stated)
inactive: [3] 98 % of control | [4] 105 % of control | [5] 98 % of control | [6] 94 % of control | [12] 88 % of control | [7] 96 % of control

CSc1nc(Cl)cc(N2CC2)n1
inactive: dose: 0.39 mg/kg/injection, schedule: Q01DX009 (ip), vehicle: saline 106 % of control | dose: 0.78 mg/kg/injection, schedule: Q01DX009 (ip), vehicle: saline 97 % of control | dose: 0.78 mg/kg/injection, schedule: Q04DX003 (ip), vehicle: saline 107 % of control | dose: 1.56 mg/kg/injection, schedule: Q01DX001 (ip), vehicle: saline 101 % of control | dose: 1.56 mg/kg/injection, schedule: Q04DX003 (ip), vehicle: saline 101 % of control | dose: 3.12 mg/kg/injection, schedule: Q01DX001 (ip), vehicle: saline 101 % of control | dose: 59.0 mg/kg/injection, schedule: Q01DX Z (ip), vehicle: methylcellulose (MC) 94 % of control | dose: 88.0 mg/kg/injection, schedule: Q01DX Z (ip), vehicle: methylcellulose (MC) 93 % of control

COC1OC2COC(c3ccccc3)OC2C(OC(=O)c2ccccc2)C1OC(=S)SCc1ccccc1 (configuration not stated)
inactive: dose: 12.5 mg/kg/injection, schedule: Q04DX002 (ip), vehicle: saline 107 % of control | dose: 25.0 mg/kg/injection, schedule: Q04DX002 (ip), vehicle: saline 104 % of control | dose: 50.0 mg/kg/injection, schedule: Q04DX002 (ip), vehicle: saline 104 % of control

CC1CN1C1=C(F)C(=O)C(N2CC2C)=C(F)C1=O (configuration not stated)
inactive: dose: 0.19 mg/kg/injection, schedule: Q01DX009 (ip), vehicle: Klucel (hydroxypropylcellulose) (HPC) 105 % of control | dose: 0.39 mg/kg/injection, schedule: Q01DX009 (ip), vehicle: Klucel (hydroxypropylcellulose) (HPC) 104 % of control | dose: 0.78 mg/kg/injection, schedule: Q01DX009 (ip), vehicle: Klucel (hydroxypropylcellulose) (HPC) 102 % of control | dose: 0.78 mg/kg/injection, schedule: Q04DX003 (ip), vehicle: Klucel (hydroxypropylcellulose) (HPC) 103 % of control | dose: 1.56 mg/kg/injection, schedule: Q01DX009 (ip), vehicle: Klucel (hydroxypropylcellulose) (HPC) 100 % of control | dose: 1.56 mg/kg/injection, schedule: Q04DX003 (ip), vehicle: Klucel (hydroxypropylcellulose) (HPC) 105 % of control | dose: 3.12 mg/kg/injection, schedule: Q01DX009 (ip), vehicle: Klucel (hydroxypropylcellulose) (HPC) 100 % of control | dose: 3.12 mg/kg/injection, schedule: Q04DX003 (ip), vehicle: Klucel (hydroxypropylcellulose) (HPC) 101 % of control | dose: 4.6 mg/kg/injection, schedule: Q01DX009 (ip), vehicle: Klucel (hydroxypropylcellulose) (HPC) 103 % of control

Cc1c(Cl)c(C)c(Cl)c(O)c1Cl (tested in a mixture with another compound)
inactive: [1] 97 % of control | [2] 93 % of control | dose: 100.0 mg/kg/injection, schedule: Q04DX002 (ip), vehicle: other 95 % of control | dose: 200.0 mg/kg/injection, schedule: Q04DX002 (ip), vehicle: other 90 % of control

CCCCCCC[CH2][Sn]([Cl])([Cl])[CH2]CCCCCCC
inactive: dose: 50.0 mg/kg/injection, schedule: Q01DX001 (ip), vehicle: carboxymethylcellulose (CMC) 96 % of control | dose: 100.0 mg/kg/injection, schedule: Q01DX001 (ip), vehicle: carboxymethylcellulose (CMC) 96 % of control | dose: 200.0 mg/kg/injection, schedule: Q01DX001 (ip), vehicle: carboxymethylcellulose (CMC) 96 % of control | dose: 400.0 mg/kg/injection, schedule: Q01DX001 (ip), vehicle: carboxymethylcellulose (CMC) 96 % of control

CCC1CN2CCc3cc(OC)c(OC)cc3C2CC1CC1NCCc2cc(OC)c(OC)cc21 (configuration not stated)
inactive: dose: 2.0 mg/kg/injection, schedule: Q04DX003 (ip), vehicle: water 93 % of control | dose: 4.0 mg/kg/injection, schedule: Q04DX003 (ip), vehicle: water 98 % of control | dose: 8.0 mg/kg/injection, schedule: Q04DX003 (ip), vehicle: water 94 % of control | dose: 16.0 mg/kg/injection, schedule: Q04DX003 (ip), vehicle: water 104 % of control | dose: 32.0 mg/kg/injection, schedule: Q04DX003 (ip), vehicle: water 102 % of control | dose: 64.0 mg/kg/injection, schedule: Q04DX003 (ip), vehicle: water 100 % of control

Cc1ccc(S(=O)(=O)O/N=C(/C#N)c2ccccc2)cc1
inactive: dose: 100.0 mg/kg/injection, schedule: Q04DX002 (ip), vehicle: Klucel (hydroxypropylcellulose) (HPC) 111 % of control | dose: 200.0 mg/kg/injection, schedule: Q04DX002 (ip), vehicle: Klucel (hydroxypropylcellulose) (HPC) 97 % of control | dose: 400.0 mg/kg/injection, schedule: Q04DX002 (ip), vehicle: Klucel (hydroxypropylcellulose) (HPC) 101 % of control

O=P(Oc1ccc(S(=O)(=O)c2ccccc2)cc1)(Oc1ccc(S(=O)(=O)c2ccccc2)cc1)Oc1ccc(S(=O)(=O)c2ccccc2)cc1
inactive: [3] 90 % of control | [4] 90 % of control | [5] 93 % of control | [6] 91 % of control | [12] 91 % of control | [7] 95 % of control

CCN(CC)c1ccc(C=Nc2cccc(C(F)(F)F)c2)cc1
inactive: [10] 105 % of control | [8] 92 % of control | [11] 94 % of control | [9] 94 % of control | dose: 400.0 mg/kg/injection, schedule: Q04DX003 (ip), vehicle: Klucel (hydroxypropylcellulose) (HPC) 97 % of control
